pIC50: −log10 of the molar value.
Test system: 556581-035-R-J1-PDC complex spheroid growth
Experiment: Anticancer human tumor 556581-035-R-J1-PDC patient-derived ovarian carcinoma cell line growth inhibition [AhR]
Conditions: for pIC50: curve of first compound; for viability, T/C: stronger effect = lower value; active = viability on the fitted dose curve at most 10% of control; inactive = the rest
Outline: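 Agents were dosed in half-log steps down from roughly clinical Cmax, or from 10 microM where Cmax was unknown, alone and with AhR antagonists. Read-out: percent test/control growth of tumor spheroids containing HUVEC and MSC stromal cells.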

[1] = second compound 0.1 µM, first compound 0.0316 µM
[2] = second compound 0.1 µM, first compound 0.1 µM
[3] = second compound 0.1 µM, first compound 0.316 µM
[4] = second compound 0.1 µM, first compound 1 µM
[5] = second compound 0.1 µM, first compound 3.16 µM
[6] = second compound 0.1 µM, first compound 10 µM
[7] = second compound 0.316 µM, first compound 0.0316 µM
[8] = second compound 0.316 µM, first compound 0.1 µM
[9] = second compound 0.316 µM, first compound 0.316 µM
[10] = second compound 0.316 µM, first compound 1 µM
[11] = second compound 0.316 µM, first compound 3.16 µM
[12] = second compound 0.316 µM, first compound 10 µM
[13] = second compound 1 µM, first compound 0.0316 µM
[14] = second compound 1 µM, first compound 0.1 µM
[15] = second compound 1 µM, first compound 0.316 µM
[16] = second compound 1 µM, first compound 1 µM
[17] = second compound 1 µM, first compound 3.16 µM
[18] = second compound 1 µM, first compound 10 µM
[19] = second compound 3.16 µM, first compound 0.0316 µM
[20] = second compound 3.16 µM, first compound 0.1 µM
[21] = second compound 3.16 µM, first compound 0.316 µM
[22] = second compound 3.16 µM, first compound 1 µM
[23] = second compound 3.16 µM, first compound 3.16 µM
[24] = second compound 3.16 µM, first compound 10 µM
[25] = second compound 10 µM, first compound 0.0316 µM
[26] = second compound 10 µM, first compound 0.1 µM
[27] = second compound 10 µM, first compound 0.316 µM
[28] = second compound 10 µM, first compound 1 µM
[29] = second compound 10 µM, first compound 3.16 µM
[30] = second compound 10 µM, first compound 10 µM
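For viability, T/C in this document: compound exposure lasted 7 days; 100% = DMSO vehicle control growth.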

COc1cc(Nc2ncc3c(n2)-c2ccc(Cl)cc2C(c2c(F)cccc2OC)=NC3)ccc1C(=O)O + Cc1cncc(-c2nc(NCCc3c[nH]c4ccccc34)c3ncn(C(C)C)c3n2)c1
< 5.00: pIC50 (second compound 0.1 µM) | pIC50 (second compound 0.316 µM) | pIC50 (second compound 1 µM) | pIC50 (second compound 3.16 µM) | pIC50 (second compound 10 µM)
inactive: viability, T/C [1] 97.2% | viability, T/C [2] 83.4% | viability, T/C [3] 79.5% | viability, T/C [4] 71.2% | viability, T/C [5] 71.1% | viability, T/C [6] 58.4% | viability, T/C [7] 91.5% | viability, T/C [8] 87.9% | viability, T/C [9] 72.5% | viability, T/C [10] 76.8% | viability, T/C [11] 62.1% | viability, T/C [12] 62.3% | viability, T/C [13] 84.9% | viability, T/C [14] 81.9% | viability, T/C [15] 78.7% | viability, T/C [16] 72.6% | viability, T/C [17] 67.8% | viability, T/C [18] 65.9% | viability, T/C [19] 86.2% | viability, T/C [20] 76.9% | viability, T/C [21] 77.2% | viability, T/C [22] 73.2% | viability, T/C [23] 72.8% | viability, T/C [24] 65.9% | viability, T/C [25] 89.4% | viability, T/C [26] 74.1% | viability, T/C [27] 78.1% | viability, T/C [28] 70.7% | viability, T/C [29] 71% | viability, T/C [30] 75.2%

Cn1ncnc1C1c2n[nH]c(=O)c3cc(F)cc(c23)NC1c1ccc(F)cc1 (stereo not given) + Cc1cncc(-c2nc(NCCc3c[nH]c4ccccc34)c3ncn(C(C)C)c3n2)c1
inactive: viability, T/C (second compound 0.1 µM, first compound 0.000316 µM) 105% | viability, T/C (second compound 0.1 µM, first compound 0.001 µM) 102% | viability, T/C (second compound 0.1 µM, first compound 0.00316 µM) 95.1% | viability, T/C (second compound 0.1 µM, first compound 0.01 µM) 110% | viability, T/C [1] 92.4% | viability, T/C [2] 90.3% | viability, T/C (second compound 0.316 µM, first compound 0.000316 µM) 99.2% | viability, T/C (second compound 0.316 µM, first compound 0.001 µM) 99.3% | viability, T/C (second compound 0.316 µM, first compound 0.00316 µM) 101% | viability, T/C (second compound 0.316 µM, first compound 0.01 µM) 89.8% | viability, T/C [7] 86.9% | viability, T/C [8] 86.6% | viability, T/C (second compound 1 µM, first compound 0.000316 µM) 96.1% | viability, T/C (second compound 1 µM, first compound 0.001 µM) 104% | viability, T/C (second compound 1 µM, first compound 0.00316 µM) 102% | viability, T/C (second compound 1 µM, first compound 0.01 µM) 102% | viability, T/C [13] 103% | viability, T/C [14] 98.6% | viability, T/C (second compound 3.16 µM, first compound 0.000316 µM) 90.6% | viability, T/C (second compound 3.16 µM, first compound 0.001 µM) 107% | viability, T/C (second compound 3.16 µM, first compound 0.00316 µM) 97.7% | viability, T/C (second compound 3.16 µM, first compound 0.01 µM) 91.8% | viability, T/C [19] 85.2% | viability, T/C [20] 101% | viability, T/C (second compound 10 µM, first compound 0.000316 µM) 87.2% | viability, T/C (second compound 10 µM, first compound 0.001 µM) 83.4% | viability, T/C (second compound 10 µM, first compound 0.00316 µM) 92% | viability, T/C (second compound 10 µM, first compound 0.01 µM) 85.7% | viability, T/C [25] 89.9% | viability, T/C [26] 79.1%
< 7.00: pIC50 (second compound 0.1 µM) | pIC50 (second compound 0.316 µM) | pIC50 (second compound 1 µM) | pIC50 (second compound 3.16 µM) | pIC50 (second compound 10 µM)

NS(=O)(=O)OCC1CC(n2ccc3c(NC4CCc5ccccc54)ncnc32)CC1O (stereo not given) + Cc1cncc(-c2nc(NCCc3c[nH]c4ccccc34)c3ncn(C(C)C)c3n2)c1
< 5.00: pIC50 (second compound 0.1 µM) | pIC50 (second compound 0.316 µM) | pIC50 (second compound 1 µM) | pIC50 (second compound 3.16 µM)
5.57: pIC50 (second compound 10 µM)
inactive: viability, T/C [1] 109% | viability, T/C [2] 102% | viability, T/C [3] 95.9% | viability, T/C [4] 90.5% | viability, T/C [5] 81.1% | viability, T/C [6] 62.5% | viability, T/C [7] 98.1% | viability, T/C [8] 104% | viability, T/C [9] 92.7% | viability, T/C [10] 85.8% | viability, T/C [11] 72.7% | viability, T/C [12] 62.2% | viability, T/C [13] 112% | viability, T/C [14] 120% | viability, T/C [15] 87.7% | viability, T/C [16] 81.6% | viability, T/C [17] 74% | viability, T/C [18] 63.8% | viability, T/C [19] 99.9% | viability, T/C [20] 119% | viability, T/C [21] 96.4% | viability, T/C [22] 84.8% | viability, T/C [23] 70.5% | viability, T/C [24] 49.5% | viability, T/C [25] 87.8% | viability, T/C [26] 95.5% | viability, T/C [27] 71.9% | viability, T/C [28] 71% | viability, T/C [29] 45.6% | viability, T/C [30] 27.6%

O=C(C=Cc1cccc(S(=O)(=O)Nc2ccccc2)c1)NO + Cc1cncc(-c2nc(NCCc3c[nH]c4ccccc34)c3ncn(C(C)C)c3n2)c1
6.03: pIC50 (second compound 10 µM)
active: viability, T/C [6] 3.96% | viability, T/C [12] 3.92% | viability, T/C [18] 5.09% | viability, T/C [24] 6.45% | viability, T/C [30] 4.13%
5.83: pIC50 (second compound 0.1 µM)
5.84: pIC50 (second compound 3.16 µM)
5.85: pIC50 (second compound 1 µM)
inactive: viability, T/C [1] 106% | viability, T/C [2] 118% | viability, T/C [3] 90.2% | viability, T/C [4] 58% | viability, T/C [5] 32% | viability, T/C [7] 102% | viability, T/C [8] 104% | viability, T/C [9] 87.3% | viability, T/C [10] 69.6% | viability, T/C [11] 27.9% | viability, T/C [13] 111% | viability, T/C [14] 114% | viability, T/C [15] 82.2% | viability, T/C [16] 60.9% | viability, T/C [17] 28.9% | viability, T/C [19] 108% | viability, T/C [20] 101% | viability, T/C [21] 87% | viability, T/C [22] 62.5% | viability, T/C [23] 26.9% | viability, T/C [25] 92.2% | viability, T/C [26] 88.8% | viability, T/C [27] 80.1% | viability, T/C [28] 43.5% | viability, T/C [29] 24.8%
5.77: pIC50 (second compound 0.316 µM)
